# Measurements reported in PubChem BioAssay (NCI).
#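 Method: 48-hour compound exposure of cells in 96-well plates, five concentrations, linear interpolation of endpoints. GI50: concentration for 50% inhibition of growth. The concentration for full growth arrest is given as TGI.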
# Assays:
# Experiment in all cases: NCI-60 cell line screen, 48 h
# U251 CNS = system: U251 CNS
# SNB-19 CNS = system: SNB-19 CNS
# CCRF-CEM leukemia = system: CCRF-CEM leukemia
# SK-OV-3 ovarian = system: SK-OV-3 ovarian
# UACC-62 melanoma = system: UACC-62 melanoma
# SF-268 CNS = system: SF-268 CNS
# A498 renal = system: A498 renal
# SN12C renal = system: SN12C renal
# SR leukemia = system: SR leukemia
# T-47D breast = system: T-47D breast
Structure (SMILES),TGI (U251 CNS) [µM],TGI (SNB-19 CNS) [µM],TGI (CCRF-CEM leukemia) [µM],TGI (SK-OV-3 ovarian) [µM],TGI (UACC-62 melanoma) [µM],TGI (SF-268 CNS) [µM],TGI (A498 renal) [µM],TGI (SN12C renal) [µM],TGI (SR leukemia) [µM],GI50 (T-47D breast) [µM],TGI (T-47D breast) [µM],GI50 (U251 CNS) [µM],GI50 (SNB-19 CNS) [µM],GI50 (CCRF-CEM leukemia) [µM],GI50 (SK-OV-3 ovarian) [µM],GI50 (UACC-62 melanoma) [µM],GI50 (SF-268 CNS) [µM],GI50 (A498 renal) [µM],GI50 (SN12C renal) [µM]
CON1C(=O)C2(CCCCC2)C(=O)C12C=CC(C)CC2 (stereo not drawn),> 100,> 100,> 100,> 100,> 100,> 100,> 100,> 100,,,,,,,,,,,
CC1CCCc2c1n[nH]c2CC1CC(=O)NC(=O)C1 (stereo not drawn),> 100,> 100,> 100,> 100,> 100,> 100,> 100,> 100,> 100,,,,,,,,,,
CCCCCCCCCCNC(=S)OC,> 100,> 100,> 100,> 100,65,> 100,> 100,> 100,55.4,,,,,,,,,,
Nc1ccc(C(=O)CC2(O)C(=O)Nc3ccccc32)cc1 (stereo not drawn),,> 100,,> 100,> 100,> 100,> 100,> 100,,,,,,,,,,,
COc1cccc(/C=C2\N=C(Cl)OC2=O)c1O,> 100,> 100,> 100,> 100,> 100,> 100,> 100,> 100,> 100,,,,,,,,,,
CC(=O)N(N=O)c1ccc(N(N=O)C(C)=O)cc1,> 100,> 100,> 100,> 100,> 100,> 100,> 100,> 100,> 100,,,,,,,,,,
CC(=O)NNc1ncc(C(=O)/C=C/c2ccccc2C)s1,> 100,> 100,> 100,> 100,> 100,> 100,> 100,,,,,,,,,,,,
COC(=O)C(/C(=N/N)C(=O)Nc1cc(Cl)ccc1Cl)c1nc2ccc([N+](=O)[O-])cc2[nH]c1=O (stereo not drawn),> 100,> 100,> 100,> 100,> 100,> 100,> 100,> 100,> 100,,,,,,,,,,
CO[C@H]1/C=C/O[C@@]2(C)Oc3c(C)c(O)c4c(O)c(c(/C=N/N5C(C)CN(Cc6ccc(C#N)cc6)CC5C)c(O)c4c3C2=O)NC(=O)/C(C)=C\C=C\[C@H](C)[C@H](O)[C@@H](C)[C@@H](O)[C@@H](C)[C@H](OC(C)=O)[C@@H]1C (stereo partly drawn),12.2,18.1,12.3,23.4,10.4,24.1,14,13.6,,6.71,26.2,6.04,7.55,2.12,9.55,3.88,9.58,7.06,6.73
COc1cccc(C2SC(C)C(=O)N2NC(=O)C(O)c2ccccc2)c1 (stereo not drawn),> 100,> 100,> 100,> 100,> 100,> 100,> 100,> 100,,> 100,> 100,> 100,> 100,> 100,> 100,> 100,> 100,> 100,> 100
Cn1nc(-c2ccccc2)c2c(/C=C/c3ccc(F)cc3)onc2c1=O,> 100,,> 100,> 100,> 100,> 100,,> 100,,,,,,,,,,,
